Data reported in patent US20220313710A1, “COMPOSITIONS AND METHODS USING NON-STEROIDAL ANTI-INFLAMMATORY DRUGS” (APPLIED BIOLOGICAL LABORATORIES, INC., priority 2019, published 2022).

Legend:
Format in all cases: cell-based
[1] = tested on: 3D model of human airway epithelium; assay: Prostaglandin E2 ELISA on basal medium of bradykinin-stimulated 3D airway epithelia (MucilAir, MatTek)
Experimental: (§1) Various compositions were tested for their ability to protect a 3D model of human airway epithelium, constituted with primary human epithelial cells freshly isolated from nasal (MucilAir™ nasal pool), or tracheal or bronchial biopsies (MatTek PE-200-6.5). MucilAir™ and MatTek tissues are reconstituted human 3D tissue from airways and lung surgical pieces, fully differentiated, pseudostratified in vitro epithelium. MucilAir™_Pool is of nasal polyp origin and reconstituted with a mixture of cells isolated from 14 different donors. […] MatTek tissues are from tracheo-bronchial origin. The respiratory epithelium lining the nose and throat have very similar histology and architecture. These two different models reconfirm that models from different origin have similar responses to treatment in the case that one model may have more underlying inflammation, or other variability with respect to its retrieval than another.
(§2) Compositions were formulated with various concentrations of acetylsalicylic acid (ASA 0.6 mg/ml or ASA 6 mg/ml) in an aqueous saline solution vehicle such as 0.9% NaCl, 1.25 mM CaCl2, 10 mM HEPES. 10 μL of each formulation was added apically either to the MucilAir™ or MatTek tissues. Formulations were either added 10 minutes after activation of an inflammatory response in the media (FIGS. 1A-B, 3A, 4A), or 5 minutes before activation of an inflammatory response in the media (FIGS. 2A-B, 3B, 4B). Due to the rate of saliva production and concomitant dilution of acetylsalicylic acid on the mucosa, administration of each concentration in vitro correlates to a 10× concentration in product form. For example, 0.6 mg/ml ASA in the in vitro measurements corresponds administration of 6 mg/ml ASA in compositions, and 6 mg/ml […] corresponds to administration of 60 mg/ml in compositions.
(§3) Typically, the inflammatory cytokine bradykinin stimulates the prostaglandin pathway (through arachidonic acid) which then stimulates IL-8, another inflammatory cytokine. […] The inflammatory response of the prostaglandin pathway was stimulated through the addition of 10 μL of 25 mg/ml bradykinin protein was applied to the apical side of the MucilAir™ media.
(§4) Four hours following bradykinin application various measurements of the inflammatory response were measured. Epithelia were washed twice with MucilAir™ culture medium in order to clean the inoculum. Liquid aliquots from the basal medium were collected and stored at −80° C. for future study.
(§5) Prostaglandin E2 or IL-8 enzyme-linked immunosorbent assays (ELISA) were performed on the liquid aliquots from the basal medium to determine the amount of prostaglandin E2 produced as a result of inflammatory conditions initiated in each test condition. […] Although, acetylsalicylic acid is typically administered in doses greater than these measured, this dosage increased the inflammatory response.
MatTek (tracheal bronchial tissue) or MucilAir (nasal polyps) 3D inserts were placed in pre-warmed media corresponding to each cell system and incubated for 15 minutes at 37° C. L of saliva (negative control) or treatment was added to the apical surfaces. 5 minutes later, 10 μL of saliva or bradykinin was added to the apical side as well. Bradykinin was obtained from Tocris or New England Peptide (NEP) as indicated. At 4 hours, samples from the basal media were collected and frozen at −80° for PGE-2 ELISA measurements. At 24 hours, the inserts were moved to fresh basal media (corresponding to each cell system) and 200 L of media were added to each apical side for TEER analysis as described previously. The plate was then incubated for 5 minutes. Following TEER measurements, the apical solution was removed and 10 μL of each treatment (or saliva) was added to the apical surface. No bradykinin was added. TEER was measured again at 48 hours. Additionally, at 24 hours and 48 hours, basal media was collected and frozen for IL-8 and LDH analyses. […]

[2] = tested on: 3D model of human airway epithelium; assay: IL-8 ELISA on basal medium of bradykinin-stimulated 3D airway epithelia (MucilAir, MatTek)
Experimental: as §1, §2, §3, §4, §5
MatTek (tracheal bronchial tissue) or MucilAir (nasal polyps) 3D inserts were placed in pre-warmed media corresponding to each cell system and incubated for 15 minutes at 37° C. L of saliva (negative control) or treatment was added to the apical surfaces. 5 minutes later, 10 μL of saliva or bradykinin was added to the apical side as well. Bradykinin was obtained from Tocris or New England Peptide (NEP) as indicated. At 4 hours, samples from the basal media were collected and frozen at −80° for PGE-2 ELISA measurements. […] TEER was measured again at 48 hours. […]

[3] = tested on: 3D model of human airway epithelium; settings: 48 h, 6 mg/ml
Experimental: as §1, with “another. […]” for “another.”
Tissue integrity was also monitored using transepithelial electrical resistance (“TEER”) measurements. […]
For TEER measurements, 200 μL of warm MucilAir™ media or MatTek TEER buffer was applied on the apical side of each insert. […] The resistance (Ω) is read on the Voltohmmeter and the TEER value was calculated with the following formula: TEER (Ω·cm^2)=(resistance value (Ω)−100 (Ω))×0.33 (cm^2). […]

[4] = dose above the therapeutic window
[5] = overall statement, concentration not given

Compound: CC(=O)Oc1ccccc1C(=O)O [ASA, acetylsalicylic acid]
- prostaglandin E2 production (inflammatory response) versus positive control ([1]; 0.6 mg/ml ASA added 5 minutes before bradykinin (FIGS. 2A, 2B)): did inhibit inflammation in a statistically significant manner
- prostaglandin E2 production (inflammatory response) versus positive control ([1]; 0.6 mg/ml ASA added 10 minutes after bradykinin, measured 4 hours after bradykinin (FIGS. 1A, 1B)): resulted in an anti-inflammatory response
- prostaglandin E2 production (inflammatory response) versus positive control ([1]; 6 mg/ml ASA added 5 minutes before bradykinin (FIG. 2A)): no statistical significance with respect to positive control
- prostaglandin E2 production (inflammatory response) versus positive control ([1]; 6 mg/ml ASA added 10 minutes after bradykinin, measured 4 hours after bradykinin (FIG. 1A)): increased the inflammatory response in a statistically significant matter
- PGE2 relative to maximum bradykinin-induced level [1, 4]: increased
- PGE-2 levels (bradykinin induced) [1, 5]: significantly decreasing
- IL-8 concentration ([2]; 0.6 mg/ml ASA, therapeutic and prophylactic modalities (FIGS. 4A, 4B)): A similar result was not observed
- IL-8 concentration ([2]; 6 mg/ml ASA, prophylactic modality (added before bradykinin, FIG. 4B)): significantly greater
- IL-8 concentration ([2]; 6 mg/ml ASA, therapeutic modality (added after bradykinin, FIG. 4A)): significantly greater
- IL-8 relative to maximum bradykinin-induced level [2, 4]: increased
- levels of IL-8 protein [2, 5]: did not appreciably decrease
- TEER (barrier function of the epithelia) [3]: < 100 Ω·cm^2
